Data from article PMC4004541, “PEG-Like Nanoprobes: Multimodal, Pharmacokinetically and Optically Tunable Nanomaterials” (PLoS ONE, 2014).

Tests used:
mCherry/HT29 cells = assay: Confocal microscopy of mCherry/HT29 tumor sections; type: in vivo, nude mice; settings: tumor collected 48 h post IV injection
Method: With skin removed, an overlay of tumor mCherry (green) and PN(545)10.0 (purple) gave a white superimposition. To determine the cells responsible for the accumulation of PN(783)10.0 seen with surface fluorescence ( Figure 5C ), we employed confocal microscopy of mCherry/HT29 tumor sections ( Figure 5D ).
The mCherry-HT-29 tumor sample was collected at 48 h post IV injection with PN(497)10.0, and then cryosectioned with thickness of 5 µm. The tumor section was fixed with 4% PFA, mounted with 90% glycerol/10% PBS (at pH 8.5 for best fluorescein fluorescence), and stained with DAPI. Confocal imaging was performed on a Zeiss LSM510 laser scanning confocal microscope (Zeiss Axiophot, Carl Zeiss, Jena, Germany). A 405 nm diode Laser, 488 nm argon laser, and 561 nm diode laser were used for the excitation of DAPI, fluorescein, and mCherry, respectively. A primary dichroic HFT 405/488/561 was used in combination with an LP420 emission filter for DAPI, BP505-530 for fluorescein, and LP575 for mCherry. Images were analyzed with ImageJ64.
Confocal imaging: The mCherry-HT-29 tumor sample was collected at 48 h post IV injection with PN(497)10.0, and then cryosectioned with thickness of 5 µm. The tumor section was fixed with 4% PFA, mounted with 90% glycerol/10% PBS (at pH 8.5 for best fluorescein fluorescence), and stained with DAPI. […] Images were analyzed with ImageJ64.

HT-29 tumor = assay: SPECT/CT and surface fluorescence imaging of the EPR effect of the HT-29 tumor; type: in vivo, nude mice; settings: 48 h post-injection, mice bearing HT-29 tumors
Method: A) SPECT/CT images of two mice bearing two HT-29 tumors as a function of time after injection. […] B) Surface fluorescence imaging of two additional mice bearing the same tumor.
Female nude mice (25–30 g; 6–8 weeks old; nu/nu) were anesthetized with 2% isoflurane/O2. HT-29 or mCherry-HT-29 cells were detached, pelleted and 200 µl of cell suspension containing 10^6 cells in Matrigel (BD Bioscience) was injected subcutaneously into right and left shoulders. Tumors were allowed to grow 5–7 days before experiments.
The imaging was performed by Triumph II multimodality imaging system (Gamma Medica Ideas, LLC) comprising XSPECT with four CZT (Cadmium Zink Telluride) detectors and X-O CT with CMOS detector. SPECT data of the ^111In-labeled compound was acquired for 60 min using 5-pinhole collimators and processed with 3D-OSEM algorithm using 4 subsets and 5 iterations. 3-dimensional CT data was processed with modified Feldkamp software. […] Animals were under isoflurane anesthesia (1.5%) with O2 flow (1.5 l/min) and kept warm during the imaging with a heated animal bed.

## (DOTA)Lys(PEG 30 kDa)-Cys(Fl) [PN(497)10.0, PEG-like Nanoprobe: 30 kDa PEG, fluorescein, DOTA peptide]
mCherry/HT29 cells
  Cellular localisation in tumor sections: seen in mCherry/HT29 cells

## (DOTA)Lys(PEG 30 kDa)-Cys(IR-783) [PN(783)10.0, PEG-like Nanoprobe: 30 kDa PEG, IR-783 fluorochrome, DOTA peptide]
HT-29 tumor
  Distribution by SPECT and surface fluorescence: seen only in the tumor
